# Test results from US11730712B2, “Functionalized long-chain hydrocarbon mono- and di-carboxylic acids and derivatives thereof, and their use for the prevention or treatment of disease” (ESPERVITA THERAPEUTICS, INC., priority 2021, dated 2023).
# Entries after “also recorded” stand apart in the source; their conditions may differ.
# Key:
# C57BL6/J mice = assay: Indirect calorimetry (CLAMS) in fructose-fed C57BL6 mice; assay type: in vivo, mouse; conditions: 100 mg/kg oral gavage, refed mice with RER >1
# Protocol: Materials and Methods. All experiments were carried out using the methods approved by the Animal Research Ethics Board at McMaster University, Canada (Steinberg Laboratory Animal Utilization Protocol #16-12-42). 8-Week-old male C57BL6/J mice were ordered from Jackson Laboratory, Bar Harbor, Me. and housed at the McMaster University Central Animal Facility. Animals were housed in the ventilated cages racks system and provided with ad libitum access to normal chow diet (Teklad 8640 22/5 rodent diet, procured from Envigo, Mississauga ON) and water supplemented with fructose (30% weight/volume, made fresh weekly) for at least 2-weeks before testing commenced. […] Data were analyzed using one-way analyses of variance followed by a Tukey's multiple comparisons post hoc test where appropriate. […]
# Experimental and Results. Respiratory Exchange Ratio (RER) and related metabolic parameters were measured using the Comprehensive Lab Animal Monitoring System (CLAMS, Columbus Instruments, Columbus, Ohio). […] RER was monitored and those animals with RER values >1 were administered either vehicle (1.5% Carboxymethyl cellulose and 0.2% Tween 20) alone or vehicle containing Compound I-1 or Compound I-32 at a dose of 100 mg/kg via oral gavage. Animals remained in the metabolic cages and RER, activity level, locomotor activity, and food intake were monitored for 24 hours. […]
# female Wistar Han rats = assay: 4-day oral gavage toxicity study in female rats; conditions: for clinical chemistry: globulin concentration and albumin:globulin ratio: 100 mg/kg/day Compound I-1 or 300 mg/kg/day Compound I-1 or Compound I-32; for compound-related effects in hematology or coagulation test results / compound-related mortality, clinical observations, body weight effects, changes in food consumption / dose whose effects were considered nonadverse: female rats, 4 days; for compound-related effects in hematology or coagulation test results / compound-related mortality, clinical observations, body weight effects, changes in food consumption: 100 or 300 mg/kg/day oral gavage; for dose whose effects were considered nonadverse: oral gavage; for microscopic findings in the liver: ≥100 mg/kg/day Compound I-1 or 300 mg/kg/day Compound I-32
SMILES,Respiratory Exchange Ratio (RER) compared to vehicle treated group (C57BL6/J mice),clinical chemistry: globulin concentration and albumin:globulin ratio (female Wistar Han rats),clinical chemistry: serum urea nitrogen concentration (female Wistar Han rats; 300 mg/kg/day),compound-related effects in hematology or coagulation test results (female Wistar Han rats),"compound-related mortality, clinical observations, body weight effects, changes in food consumption (female Wistar Han rats)",dose whose effects were considered nonadverse (female Wistar Han rats) [mg/kg/day],microscopic findings in the liver (female Wistar Han rats),microscopic findings in the kidney (female Wistar Han rats; 300 mg/kg/day)
"CC(C)(CCCCc1cccc(CCCCC(C)(C)C(=O)O)c1)C(=O)O [Compound I-32, 6-[3-(5-carboxy-5-methylhexyl)-phenyl]-2,2-dimethylhexanoic acid]",significant reduction in the RER,minimally lower globulin concentration and minimally higher albumin:globulin ratio,Minimally lower serum urea nitrogen concentration,No Compound I-1- or Compound I-32-related effects in hematology or coagulation test results were identified,"No Compound I-1- or Compound I-32-related mortality, clinical observations, body weight effects, or changes in food consumption were noted",300,increase in mitoses in hepatocytes; also recorded: periportal hepatocyte vacuolation,–
"CC(C)(CCCCc1ccc(CCCCC(C)(C)C(=O)O)cc1)C(=O)O [Compound I-1, 6-[4-(5-carboxy-5-methylhexyl)-phenyl]-2,2-dimethylhexanoic acid]",significant reduction in the RER,minimally lower globulin concentration and minimally higher albumin:globulin ratio,–,No Compound I-1- or Compound I-32-related effects in hematology or coagulation test results were identified,"No Compound I-1- or Compound I-32-related mortality, clinical observations, body weight effects, or changes in food consumption were noted",100,increase in mitoses in hepatocytes,"tubular degeneration/necrosis, tubular regeneration, and increased mitoses"
